Results: US6369089B1, “Interheteroaryl 7-oxabicyclic [2.2.1]heptane oxazoles as prostaglandin F2α antagonists” (Allergan Sales, Inc., priority 2000, dated 2002)

Target: T1, human FP receptor (Homo sapiens, UniProt P43088)
T1 construct: expressed in transfected cells
Assay: Ca2+ signaling, antagonism of 17-phenyl PGF2α response in HEK cells stably transfected with the human FP receptor
Type: cell-based
Experimental: HEK cells stably transfected with the human FP receptor were removed from the culture flasks by approximately 1 min treatment with trypsin 0.05%/0.53 mM EDTA in HBSS (Gibco, Grand Island, N.Y.) at 37° C. Proteolytic activity was arrested by adding 5 ml of 10% fetal bovine serum in DMEM. The cells were consecutively washed in Hank's BSS and medium containing 140 mM NaCl, […], 1 mM MgCl2, 1.5 mM CaCl2, 10 mM HEPES: TRIS, 5 mM glucose, 5 mM Na pyruvate, 0.1% bovine serum albumin at pH 7.4: centrifugation for the washes was performed for 15 minutes at 200 g at room temperature. Cells were counted, resuspended in the above medium and incubated with 2×10^−6 M Fura 2/acetoxymethyl ester in a shaking water bath for 30 minutes at 37° C. The cells were subsequently washed in medium as above and resuspended at a concentration of 2×10^6 cells ml^−1. Aliquots of 0.5 ml cell suspension were then added to autocap microtubes to provide 10^6 cells per experimental determination of intracellular free Ca^2+ concentration ([Ca^2+]i).
Fluorescence was measured in a Perkin-Elmer LS-5 fluorescence spectrophotometer at excitation and emission wavelengths of 340 and 492 nm, respectively, with both slits at 10 nm. […]

T1 sequence (P43088 whole entry): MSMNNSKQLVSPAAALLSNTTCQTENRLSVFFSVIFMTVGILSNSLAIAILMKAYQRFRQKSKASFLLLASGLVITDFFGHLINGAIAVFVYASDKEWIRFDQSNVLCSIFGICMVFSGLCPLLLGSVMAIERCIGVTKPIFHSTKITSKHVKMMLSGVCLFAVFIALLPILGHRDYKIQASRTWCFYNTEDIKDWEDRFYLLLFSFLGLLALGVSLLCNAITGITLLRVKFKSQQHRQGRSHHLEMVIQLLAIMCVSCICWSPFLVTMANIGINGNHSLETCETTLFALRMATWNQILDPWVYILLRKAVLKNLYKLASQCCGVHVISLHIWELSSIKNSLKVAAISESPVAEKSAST

## COC(=O)CCc1ccccc1CC1C2CCC(O2)C1c1nc(C(=O)NCCCCC2CCCCC2)co1 (stereo not shown)
  PGF2α antagonist activity (comparison in words): much less active than the corresponding acid
